According to US20240180153A1, “METHODS FOR MANAGING DISEASES IN CUT FLOWERS” (Niacet Corporation, priority 2022, published 2024):

What was measured:
[1] = system: B. cinerea; test: In-vitro mycelium growth inhibition on CaP-amended PDA; type: cell-based, Botrytis cinerea; details: six isolates, pH 6.0, 25° C. dark
Experimental: (§1) A 10% buffered (pH 6.0) stock solution in autoclaved de-ionized water was used to prepare working calcium propionate solutions. Initially, five concentrations of 0, 1, 5, 25, and 100 ppm were screened for determining the effect of calcium propionate on fungal mycelia. Higher concentrations of 300, 900, 2700, and 8100 ppm were also tested in mycelium growth inhibition assays to determine EC50 values for isolates sensitive and resistant to FRAC codes 1, 2, 7, 9, 11, 12, 13, and 17 (i.e., benzimidazoles, quinone outside inhibitors, dicarboxamides, succinate dehydrogenases, phenylpyrroles, demethylation inhibitor fungicides, and anilinopyrimidines respectively).
(§2) To prepare different concentrations, calculated amount of stock solution was mixed in autoclaved (121 C for 20 mins) potato dextrose agar (PDA) after the media cooled down to appropriate temperature. […] Mycelium growth diameter was measured using a vernier caliper just before the mycelium growth of two colonies in the control media plate overlapped. […] Mycelium inhibition rates were calculated and EC50 values were determined. Additionally, the fungistatic activity of calcium propionate was determined at 8000 mg/L (0.8%; pH 6.0) concentration, buffered at pH 6 with acetic acid. […] Mycelium growth was recorded every 24 h using a vernier caliper until fungal mycelia in control treatments reached the 90 mm in diameter petri dish rim.

[2] = system: B. cinerea isolate PDRK3; test: Botrytis blight severity on harvested petunia flowers after spray application; type: in vivo, Botrytis cinerea
Experimental: (§3) Calcium propionate concentrations were prepared by adding appropriate amounts in de-ionized water and tested in four separate experiments. Spray applications at 1.25%, 2.5%, and 5% (pH 7.7 and buffered with acetic acid to pH 6.5) (first experiment) and 0.5%, 0.75%, and 1% buffered with acetic acid to pH 6.5 (second experiment) were made on harvested open petunia flowers. Separately, spray applications at 0.1%, 0.2%, 0.3%, (third experiment) 0.5%, 0.75%, and 1% (fourth experiment) buffered with acetic acid to pH 6.5 were made on harvested open petunia flowers. Approximately 24 hours after spray applications, the flowers were arranged in humid chambers maintaining relative humidity of 98-100% and inoculated by spraying spore suspension (10^4 spores/ml) of B. cinerea isolate PDRK3 (Bennett et al. 2019). Fungicide applications and spore suspensions were misted onto flowers until runoff to completely cover the flower using a 4 oz clear PET plastic bullet bottle with white mist sprayer (The Cary Company, Addison, IL). The petunia flowers were evaluated 72 h after inoculation to observe botrytis blight severity and phytotoxicity using ratings from 0 to 8 scale based on the area of infected corolla (0=no infection; 8=complete necrosis), modified from Bennett (2019). Pydiflumethophen+fludioxonil (sold under the trademark MIRAVIS™ PRIME; Syngenta, Raleigh, NC) was used as a commercial fungicide control along with a non-inoculated and an inoculated control. Ten flowers were evaluated per treatment and the entire experiment was repeated twice.

[3] = system: Botrytis cinerea isolate S4GBR4O; test: Botrytis blight severity on cut roses after submerging flower-head; type: in vivo
Experimental: (§4) Calcium propionate concentrations of 0.1%, 0.2%, 0.3%, 0.5%, 0.75%, 1% (pH 6.0), were prepared and tested against Botrytis blight on cut roses. Treatments were applied by submerging flower-head of 15 sec in the solutions of the treatments and gently moving the flowers up and down to allow the petals to open and help the product get in touch with the most internal petals. Then, the flowers were placed vertically in open PVC boxes over heavy-duty thermoformed trays (Greenhouse Megastore, Danville, IL) containing 3 L of water. The boxes and trays were placed inside open humid chambers for 24 h, then the flowers were sprayed with a Botrytis cinerea spore suspension at 10^5 spores/ml from the previously characterized isolate S4GBR4O (Muñoz et al., 2019). The humid chambers were closed, and data collection of disease severity was taken 3, 5, and 7 days after the inoculation. Relative humidity in the humid chambers was maintained in a range of 97-100% which was verified using a psychrometer (RH300, Extech Instruments, Nashua, NH, US). Observational data on phytotoxicity symptoms were also collected. Additionally, an inoculated control, Pydiflumethophen+Fludioxonil (sold under the trademark MIRAVIS™ PRIME; Syngenta, Raleigh, NC), and a non-inoculated treatment were included in the evaluation. The experiment with CaP treatments of 0.5%, 0.75%, and 1% (pH 6.0) were conducted only once due to phytotoxicity issues. All lower dose treatments were performed twice.

[4] = system: all four pathogens (B. cinerea, M. fructicola, A. alternata, C. siamense); test: In-vitro mycelium growth inhibition, statements pooled over all four pathogens; type: cell-based
Experimental: as §1
To prepare different concentrations, calculated amount of stock solution was mixed in autoclaved (121 C for 20 mins) potato dextrose agar (PDA) after the media cooled down to appropriate temperature. Amended media with different CaP concentrations was poured in to 15×100 mm petri dishes (VWR International, LLC., Radnor, PA), and left to solidify. For mycelium growth, 5 mm plugs were obtained from the edges of freshly grown seven-day old cultures from all 24 isolates of different fungal genera including Alternaria sp., Botrytis sp., Colletotrichum sp., and Monilinia sp. (Table 1). Two culture plugs of each isolate were placed near opposite edges of individual CaP amended PDA media plates. The media plates with no CaP (0 ppm) served as control treatment. Inoculated plates were then incubated at 25° C. in dark for 7-10 days. Mycelium growth diameter was measured using a vernier caliper just before the mycelium growth of two colonies in the control media plate overlapped. […] Mycelium inhibition rates were calculated and EC50 values were determined. Additionally, the fungistatic activity of calcium propionate was determined at 8000 mg/L (0.8%; pH 6.0) concentration, buffered at pH 6 with acetic acid. […] Mycelium growth was recorded every 24 h using a vernier caliper until fungal mycelia in control treatments reached the 90 mm in diameter petri dish rim.

[5] = system: cut roses; test: Phytotoxicity on cut roses after submerging flower-head; type: in vivo, cultivar Orange Crush
Experimental: as §4

[6] = system: C. siamense; test: In-vitro mycelium growth inhibition on CaP-amended PDA; type: cell-based, Colletotrichum siamense
Experimental: as §1, §2

[7] = system: petunia flowers; test: Phytotoxicity on harvested petunia flowers after spray application; type: in vivo, Petuniaxhybrida 'Dreams burgundy picotee'
Experimental: as §3

[8] = system: A. alternata; test: In-vitro mycelium growth inhibition on CaP-amended PDA; type: cell-based, Alternaria alternata
Experimental: as §1, §2

[9] = system: M. fructicola; test: as above; type: cell-based, Monilinia fructicola; details: six isolates, pH 6.0, 25° C. dark
Experimental: as §1, §2

[10] = 8000 ppm (0.8%; pH 6.0), after 2-4 days, growth rate reaching untreated control
[11] = six isolates, amended PDA, pH 6.0, 25° C. dark

## CCC(=O)[O-].CCC(=O)[O-].[Ca+2] [CaP, calcium propionate]
[1]
  mean EC50 mycelium growth: 527.77 µg/mL
[2]; 0.75% to 1% (fourth experiment) and 0.1% to 0.3% (third experiment), pH 6.5
  control efficacy with increase in concentration: did not correspond to an increase in control efficacy
[2]; experiment three, all CaP treatments 0.1%, 0.2%, 0.3% (pH 6.5)
  disease severity: reduced disease severity
[2]; experiment two, 0.75% and 1.0% CaP (pH 6.5)
  botrytis blight control compared to the 0.5% treatment: significantly better control
[2]; experiment two, all CaP treatments 0.5%, 0.75%, 1% (pH 6.5)
  disease severity: reduced disease severity
[2]; first experiment, 1.25% CaP, pH 6.5 compared to pH 7.7
  botrytis blight control, lower pH vs higher pH treatment: significantly better control
[2]; first experiment, increase from 1.25% to 5%
  control efficacy with increase in concentration: did not correspond to an increase in control efficacy
[2]; first experiment, spray 1.25%, 2.5%, and 5% (pH 6.5 and 7.7), 72 h after inoculation
  botrytis blight severity vs inoculated control: reduced botrytis blight compared to the inoculated control
[2]; third and fourth experiments, all CaP concentrations 0.1%-1% at pH 6.5
  botrytis blight severity vs inoculated control: reduced botrytis blight compared to the inoculated control
[3]; first rose experiment, 0.5%, 0.75%, and 1% CaP (pH 6.0)
  botrytis blight severity, difference to inoculated control: No statistical differences
[3]; second rose experiment, 0.1% (pH 6.0) CaP
  efficacy against botrytis blight compared to grower standard: as effective as the grower standard Miravis Prime
[3]; second rose experiment, 0.1% CaP (pH 6.0)
  efficacy against botrytis blight compared to 0.3% CaP: significantly higher efficacy
[4]; 8000 ppm (0.8%; pH 6.0), after 2-4 days of incubation
  mycelium growth inhibition: ~100%
[4]; CaP 1, 5, 25, and 100 mg/L, preliminary experiments
  maximum inhibition of fungal mycelium growth: below 20%
[4]; isolates sensitive vs resistant to commonly used FRAC groups
  mean EC50 of fungicide-sensitive versus fungicide-resistant isolates: not significantly different
[5]; 0.1% CaP (pH 6.0)
  phytotoxicity: no to barely noticeable phytotoxicity
[5]; 0.3% and 0.2% CaP (pH 6.0)
  phytotoxicity symptoms: minor symptoms of phytotoxicity
  size of phytotoxicity spots: 1-2 mm
[5]; 0.5% CaP (pH 6.0) and higher, rounded areas in outermost petals, discolored edges
  phytotoxicity symptoms: phytotoxicity symptoms were observed
[6]; [10]
  mycelium growth recovery after initial inhibition: recovered quickly
[6]; [11]
  mean EC50 mycelium growth: 1310.34 µg/mL
[7]; experiment three, 0.1% (pH 6.5)
  phytotoxicity: barely noticeable
[7]; experiment three, 0.1% CaP (pH 6.5)
  phytotoxicity, difference to untreated control: no significant difference
[7]; experiment three, lower concentrations 0.1%-0.3% (pH 6.5)
  phytotoxicity: very little to no phytotoxicity
[7]; experiment two, 0.5% (pH 6.5)
  phytotoxicity: barely noticeable
[7]; experiment two, 0.75% and 1% (pH 6.5)
  phytotoxicity: noticeable phytotoxicity
[7]; first experiment, 1.25%, 2.5%, and 5% CaP (pH 6.5 and 7.7)
  phytotoxicity (bleaching of petunia flower tissue): Evidence of phytotoxicity was observed
[7]; fourth experiment, 0.5%, 0.75%, and 1% CaP (pH 6.5), increased with increasing concentrations
  phytotoxicity (bleaching of petunia flower tissue): Evidence of phytotoxicity was observed
[8]; [10]
  mycelium growth recovery after initial inhibition: recovered quickly
[8]; [11]
  mean EC50 mycelium growth: 1354.87 µg/mL
[9]
  mean EC50 mycelium growth: 618.25 µg/mL
